In PubChem BioAssay (NCI):
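Test compounds were applied to cells in 96-well plates for 48 hours at 5 doses. GI50 = concentration required for 50% inhibition of growth. Definition used: TGI = concentration required for complete inhibition of growth.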

Tests used:
Assay in all cases: NCI-60 cell line screen, 48 h
UACC-62 melanoma = system: UACC-62 melanoma
SR leukemia = system: SR leukemia
HS 578T breast = system: HS 578T breast
EKVX NSCLC = system: EKVX NSCLC
OVCAR-4 ovarian = system: OVCAR-4 ovarian
NCI-H522 lung = system: NCI-H522 lung
CCRF-CEM leukemia = system: CCRF-CEM leukemia
HCC-2998 colon = system: HCC-2998 colon
T-47D breast = system: T-47D breast
KM12 colon = system: KM12 colon
OVCAR-5 ovarian = system: OVCAR-5 ovarian
ACHN renal = system: ACHN renal
SK-OV-3 ovarian = system: SK-OV-3 ovarian
K-562 leukemia = system: K-562 leukemia
SK-MEL-28 melanoma = system: SK-MEL-28 melanoma
HCT-15 colon = system: HCT-15 colon
UACC-257 melanoma = system: UACC-257 melanoma
HOP-92 NSCLC = system: HOP-92 NSCLC
A498 renal = system: A498 renal
LOX IMVI melanoma = system: LOX IMVI melanoma
SNB-19 CNS = system: SNB-19 CNS
HCT-116 colon = system: HCT-116 colon
BT-549 breast = system: BT-549 breast
UO-31 renal = system: UO-31 renal
786-0 renal = system: 786-0 renal
A549 NSCLC = system: A549 NSCLC
HOP-62 NSCLC = system: HOP-62 NSCLC
SNB-75 CNS = system: SNB-75 CNS
PC-3 prostate = system: PC-3 prostate
OVCAR-3 ovarian = system: OVCAR-3 ovarian
M14 melanoma = system: M14 melanoma
SK-MEL-2 melanoma = system: SK-MEL-2 melanoma
HL-60(TB) leukemia = system: HL-60(TB) leukemia
MCF7 breast = system: MCF7 breast
SN12C renal = system: SN12C renal
NCI-H226 lung = system: NCI-H226 lung
TK-10 renal = system: TK-10 renal
IGROV1 ovarian = system: IGROV1 ovarian
NCI/ADR-RES ovarian = system: NCI/ADR-RES ovarian
MDA-MB-231 breast = system: MDA-MB-231 breast
SF-295 CNS = system: SF-295 CNS
SK-MEL-5 melanoma = system: SK-MEL-5 melanoma
MDA-MB-435 = system: MDA-MB-435
CAKI-1 renal = system: CAKI-1 renal
SF-268 CNS = system: SF-268 CNS
OVCAR-8 ovarian = system: OVCAR-8 ovarian
NCI-H460 lung = system: NCI-H460 lung
U251 CNS = system: U251 CNS
SW-620 colon = system: SW-620 colon
MOLT-4 leukemia = system: MOLT-4 leukemia
HT29 colon = system: HT29 colon
DU-145 prostate = system: DU-145 prostate
SF-539 CNS = system: SF-539 CNS
MALME-3M melanoma = system: MALME-3M melanoma
RXF 393 renal = system: RXF 393 renal

## [Cl][Ru].c1ccc(-c2cccc(-c3ccccn3)n2)nc1.c1ccc(-c2ccnc3c2ccc2c(-c4ccccc4)ccnc23)cc1
UACC-62 melanoma
  GI50: 1.97 µM
  TGI: 5.53 µM
SR leukemia
  GI50: 2.65 µM
  TGI: 17.9 µM
HS 578T breast
  GI50: 2.6 µM
  TGI: 8.63 µM
EKVX NSCLC
  GI50: 3.22 µM
  TGI: 23.3 µM
OVCAR-4 ovarian
  GI50: 3.13 µM
  TGI: 26.7 µM
NCI-H522 lung
  GI50: 2.12 µM
  TGI: 6.75 µM
CCRF-CEM leukemia
  GI50: 4.5 µM
  TGI: > 100 µM
HCC-2998 colon
  TGI: 20.1 µM
T-47D breast
  GI50: 2.32 µM
  TGI: 8.35 µM
KM12 colon
  GI50: 3.04 µM
  TGI: > 100 µM
OVCAR-5 ovarian
  GI50: 4.01 µM
  TGI: 19.5 µM
ACHN renal
  GI50: 21.2 µM
  TGI: > 100 µM
SK-OV-3 ovarian
  GI50: 2.3 µM
  TGI: 7 µM
K-562 leukemia
  GI50: 1.67 µM
  TGI: > 100 µM
SK-MEL-28 melanoma
  GI50: 3.01 µM
  TGI: 18 µM
HCT-15 colon
  GI50: 22.4 µM
  TGI: > 100 µM
UACC-257 melanoma
  GI50: 2.7 µM
  TGI: 14.2 µM
HOP-92 NSCLC
  GI50: 1.09 µM
  TGI: 3.64 µM
A498 renal
  GI50: 15.1 µM
  TGI: 46.6 µM
LOX IMVI melanoma
  GI50: 3.04 µM
  TGI: > 100 µM
SNB-19 CNS
  GI50: 3.33 µM
  TGI: 21.7 µM
HCT-116 colon
  GI50: 3.16 µM
  TGI: > 100 µM
BT-549 breast
  GI50: 2.26 µM
  TGI: 6.46 µM
UO-31 renal
  GI50: 6.31 µM
  TGI: > 100 µM
786-0 renal
  GI50: 13.2 µM
  TGI: 62.7 µM
A549 NSCLC
  GI50: 4.06 µM
  TGI: 75.4 µM
HOP-62 NSCLC
  GI50: 4.11 µM
  TGI: 27.9 µM
SNB-75 CNS
  GI50: 2.37 µM
  TGI: 9.73 µM
PC-3 prostate
  GI50: 2.63 µM
  TGI: 10.6 µM
OVCAR-3 ovarian
  GI50: 3.36 µM
  TGI: > 100 µM
M14 melanoma
  GI50: 4.82 µM
  TGI: 34.3 µM
SK-MEL-2 melanoma
  GI50: 1.96 µM
  TGI: 5.13 µM
HL-60(TB) leukemia
  GI50: 1.62 µM
  TGI: 4.03 µM
MCF7 breast
  GI50: 2.41 µM
  TGI: 13.4 µM
SN12C renal
  GI50: 2.87 µM
  TGI: 10.8 µM
NCI-H226 lung
  GI50: 4.66 µM
  TGI: 25.7 µM
TK-10 renal
  GI50: 11.8 µM
  TGI: 37.3 µM
IGROV1 ovarian
  GI50: 2.93 µM
  TGI: 20.7 µM
NCI/ADR-RES ovarian
  GI50: 10 µM
  TGI: > 100 µM
MDA-MB-231 breast
  GI50: 3 µM
  TGI: 12.5 µM
SF-295 CNS
  GI50: 13.8 µM
  TGI: 56.7 µM
SK-MEL-5 melanoma
  GI50: 6.55 µM
  TGI: 44.4 µM
MDA-MB-435
  GI50: 2.77 µM
  TGI: 11 µM
CAKI-1 renal
  GI50: 13.8 µM
  TGI: 36.6 µM
SF-268 CNS
  GI50: 4.17 µM
  TGI: > 100 µM
OVCAR-8 ovarian
  GI50: 5.35 µM
  TGI: 59 µM
NCI-H460 lung
  GI50: 3.75 µM
  TGI: > 100 µM
U251 CNS
  GI50: 2.69 µM
  TGI: > 100 µM
SW-620 colon
  GI50: 4.14 µM
  TGI: 80.5 µM
MOLT-4 leukemia
  GI50: 3.51 µM
  TGI: 24.5 µM
HT29 colon
  GI50: 3.08 µM
  TGI: 12 µM
DU-145 prostate
  GI50: 4.84 µM
  TGI: > 100 µM
SF-539 CNS
  GI50: 2.93 µM
  TGI: 19.9 µM
MALME-3M melanoma
  GI50: 2.42 µM
  TGI: 7.52 µM
RXF 393 renal
  GI50: 3.43 µM
  TGI: 19 µM
